We go through 29 compounds from patent US20240270741A1 (Cogent Biosciences, Inc., priority 2023, published 2024).

The IC50 is the point on the concentration scale where inhibition reaches its midpoint. A high value points to weaker potency.

Structures are written as SMILES.

In one test the target is FGFR2 (Homo sapiens, UniProt P21802). The experiment in a line: FGFR wild type enzyme assay (HTRF KinEASE-TK), FGFR2. The settings on record: Enz FGFR2 (nM). Background: Time-resolved FRET reads energy transfer from a long-lived donor to a nearby acceptor.
Chain of FGFR2 (P21802 399-821 limits assumed): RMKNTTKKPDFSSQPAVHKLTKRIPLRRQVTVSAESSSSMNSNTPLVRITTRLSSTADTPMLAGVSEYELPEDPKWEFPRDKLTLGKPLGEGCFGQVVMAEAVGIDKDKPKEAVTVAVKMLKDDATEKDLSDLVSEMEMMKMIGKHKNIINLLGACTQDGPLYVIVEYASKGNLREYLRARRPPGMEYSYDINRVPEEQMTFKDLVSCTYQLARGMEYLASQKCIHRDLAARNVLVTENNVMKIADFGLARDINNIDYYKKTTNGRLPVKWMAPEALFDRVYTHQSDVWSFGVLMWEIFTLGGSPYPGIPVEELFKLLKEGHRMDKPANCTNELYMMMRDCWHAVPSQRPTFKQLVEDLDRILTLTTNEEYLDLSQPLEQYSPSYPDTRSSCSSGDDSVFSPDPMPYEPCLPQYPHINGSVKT
`Cc1c(-c2cc(Sc3ccccc3C#N)c3c(C#N)cnn3c2)cnn1[C@@H]1CCCNC1` [Example 112, 4-(2-cyanophenyl)sulfanyl-6-[5-methyl-1-[(3R)-3-piperidyl]pyrazol-4-yl]pyrazolo[1,5-a]pyridine-3-carbonitrile] showed a half-maximal inhibitory concentration (IC50) of 2 nM.

The test is the same for the next values; noted with them: Enz FGFR2 (nM), FGFR2 wild type enzyme.
As for `CC(=O)N1CCC[C@H](n2ncc(-c3cc(Sc4ncccc4F)c4c(C#N)cnn4c3)c2C)C1` [Example 166, (S)-6-(1-(1-acetylpiperidin-3-yl)-5-methyl-1H-pyrazol-4-yl)-4-((3-fluoropyridin-2-yl)thio)pyrazolo[1,5-a]pyridine-3-carbonitrile], the half-inhibitory concentration (IC50) amounted to 2 nM.

In turn, `CC(=O)N1C[C@H]2C[C@@H](n3ncc(-c4cc(Sc5ncccc5F)c5c(C#N)cnn5c4)c3C)C[C@H]2C1` [Example 259, 6-(1-((3aR,5r,6aS)-2-acetyloctahydrocyclopenta [c]pyrrol-5-yl)-5-methyl-1H-pyrazol-4-yl)-4-((3-fluoropyridin-2-yl)thio)pyrazolo[1,5-a]pyridine-3-carbonitrile] showed a half-inhibitory concentration (IC50) of 1.5 nM.

In turn, `CC(=O)N1CCC(Cn2ncc(-c3cc(Sc4ccccc4C#N)c4c(C#N)cnn4c3)c2C)CC1` [Example 221, 6-(1-((1-acetylpiperidin-4-yl)methyl)-5-methyl-1H-pyrazol-4-yl)-4-((2-cyanophenyl)thio)pyrazolo [1,5-a]pyridin-3-carbonitrile] returned an IC50 of 1 nM.

Compound `Cc1c(-c2cc(Sc3ccccc3C#N)c3c(C#N)cnn3c2)cnn1[C@H]1CC[C@@H](NS(C)(=O)=O)CC1` [Example 285, N-((1s,4s)-4-(4-(3-cyano-4-((2-cyanophenyl)thio)pyrazolo [1,5-a]pyridin-6-yl)-5-methyl-1H-pyrazol-1-y)cyclohexyl)methane-sulfonamide] yielded an IC50 of 1 nM.

Compound `Cc1c(-c2cc(Sc3ncccc3F)c3c(C#N)cnn3c2)cnn1[C@H]1CC[C@@H](N)CC1` [Example 186, 6-(1-((1s,4s)-4-aminocyclohexyl)-5-methyl-1H-pyrazol-4-yl)-4-((3-fluoropyridin-2-yl)thio)pyrazolo[1,5-a]pyridine-3-carbonitrile] returned a half-inhibitory concentration (IC50) of 3 nM.

As to `Cc1c(-c2cc(Sc3ncccc3F)c3c(C#N)cnn3c2)cnn1[C@H]1CC[C@@]2(CCNC2)CC1` [Example 175, 4-((3-fluoropyridin-2-yl)thio)-6-(5-methyl-1-((5r,8r)-2-azaspiro[4.5]decan-8-yl)-1H-pyrazol-4-yl)pyrazolo[1,5-a]pyridine-3-carbonitrile], the IC50 is 1 nM.

Regarding `Cc1c(-c2cc(Sc3ncccc3F)c3c(C#N)cnn3c2)cnn1C1CCN(CC(=O)N(C)C)CC1` [Example 195, 2-(4-(4-(3-cyano-4-((3-fluoropyridin-2-yl)thio)pyrazolo[1,5-a]pyridin-6-yl)-5-methyl-1H-pyrazol-1-yl)piperidin-1-yl)-N,N-dimethylacetamide], inhibition was half-maximal at 1.4 nM (IC50).

The test is the same for the next values; noted with them: Enz FGFR2 (nM), FGFR2 wild type enzyme assay.
In turn, `CC(=O)N1CC[C@@H](n2cc(-c3cc(Sc4ccc(F)cc4C#N)c4c(C#N)cnn4c3)cn2)C[C@H]1C` [Example 412, 6-(1-((2R,4R)-1-acetyl-2-methylpiperidin-4-yl)-1H-pyrazol-4-yl)-4-((2-cyano-4-fluorophenyl)thio)pyrazolo [1,5-a]pyridine-3-carbonitrile] showed an IC50 of 1 nM.

`N#Cc1cc(F)ccc1Sc1cc(-c2ccc(N3C[C@@H](O)[C@H](O)C3)nc2)cn2ncc(C#N)c12` [Example 629, 4-((2-cyano-4-fluorophenyl)thio)-6-(6-((3R,4R)-3,4-dihydroxypyrrolidin-1-yl)pyridin-3-yl)pyrazolo[1,5-a]pyridine-3-carbonitrile]: the IC50 came to 1.6 nM.

In turn, `CC1(C)C[C@H](n2cc(-c3cc(Sc4ccccc4C#N)c4c(C#N)cnn4c3)cn2)CN1` [Example 472, (S)-4-((2-cyanophenyl)thio)-6-(1-(5,5-dimethylpyrrolidin-3-yl)-1H-pyrazol-4-yl)pyrazolo[1,5-a]pyridine-3-carbonitrile] yielded an IC50 of 0.3 nM.

In the case of `Cc1c(-c2cc(Sc3ccc(F)cc3C#N)c3c(C#N)cnn3c2)cnn1[C@H]1CCCN(C(=O)[C@@H](C)O)C1` [Example 512, 4-((2-cyano-4-fluorophenyl)thio)-6-(1-((S)-1-((R)-2-hydroxypropanoyl)piperidin-3-yl)-5-methyl-1H-pyrazol-4-yl)pyrazolo[1,5-a]pyridine-3-carbonitrile], it took 1 nM to reach half-maximal inhibition (IC50).

`CC(C)(CO)n1cc(-c2cc(Sc3ccccc3C#N)c3c(C#N)cnn3c2)cn1` [Example 578, 4-((2-cyanophenyl)thio)-6-(1-(1-hydroxy-2-methylpropan-2-yl)-1H-pyrazol-4-yl)pyrazolo[1,5-a]pyridine-3-carbonitrile] returned an IC50 of 2 nM.

`N#Cc1ccccc1Sc1cc(-c2cn[nH]c2)cn2ncc(C#N)c12` [Example 569, 4-((2-cyanophenyl)thio)-6-(1H-pyrazol-4-yl)pyrazolo[1,5-a]pyridine-3-carbonitrile]: the IC50 is 2 nM.

`COc1ccc(Sc2cc(-c3cnn(C4CCN(C)CC4)c3C)cn3ncc(C#N)c23)c(C#N)c1` [Example 379, 4-((2-cyano-4-methoxyphenyl)thio)-6-(5-methyl-1-(1-methylpiperidin-4-yl)-1H-pyrazol-4-yl)pyrazolo[1,5-a]pyridine-3-carbonitrile] yielded a concentration for half-maximal inhibition (IC50) of 25 nM.

`Cc1c(-c2cc(Sc3ccc(F)cc3C#N)c3c(C#N)cnn3c2)cnn1[C@@H]1CNC(C)(C)C1` [Example 439, (S)-4-((2-cyano-4-fluorophenyl)thio)-6-(1-(5,5-dimethylpyrrolidin-3-yl)-5-methyl-1H-pyrazol-4-yl)pyrazolo[1,5-a]pyridine-3-carbonitrile] displayed an IC50 of 1 nM.

For the compound `CC(C)(O)CCn1cc(-c2cc(Sc3ccccc3C#N)c3c(C#N)cnn3c2)cn1` [Example 653, 4-((2-cyanophenyl)thio)-6-(1-(3-hydroxy-3-methylbutyl)-1H-pyrazol-4-yl)pyrazolo[1,5-a]pyridine-3-carbonitrile], the midpoint of inhibition, the IC50, lay at 1 nM.

For `CC(=O)N[C@H]1CC[C@@H](n2ncc(-c3cc(Sc4nc(F)ccc4F)c4c(C#N)cnn4c3)c2C)CC1` [Example 384, N-((1s,4s)-4-(4-(3-cyano-4-((3,6-difluoropyridin-2-y)thio)pyrazolo[1,5-a]pyridin-6-yl)-5-methyl-1H-pyrazol-1-yl)cyclohexyl)acetamide], inhibition was half-maximal at 1 nM (IC50).

In turn, `Cc1cc(Sc2cc(-c3cnn(C4CCN(C)CC4)c3C)cn3ncc(C#N)c23)c(C#N)cc1F` [Example 371, 4-((2-cyano-4-fluoro-5-methylphenyl)thio)-6-(5-methyl-1-(1-methylpiperidin-4-yl)-1H-pyrazol-4-yl)pyrazolo[1,5-a]pyridine-3-carbonitrile] showed an IC50 of 5 nM.

Compound `Cc1c(-c2cc(Sc3ccc(F)cc3C#N)c3c(C#N)cnn3c2)cnn1CCO` [Example 511, 4-((2-cyano-4-fluorophenyl)thio)-6-(1-(2-hydroxyethyl)-5-methyl-1H-pyrazol-4-yl)pyrazolo[1,5-a]pyridine-3-carbonitrile] displayed a half-inhibitory concentration (IC50) of 8 nM.

`N#Cc1ccccc1Sc1cc(-c2cnn(CC(F)F)c2)cn2ncc(C#N)c12` [Example 613, 4-((2-cyanophenyl)thio)-6-(1-(2,2-difluoroethyl)-1H-pyrazol-4-yl)pyrazolo[1,5-a]pyridine-3-carbonitrile]: the IC50 is 1 nM.

The compound `N#Cc1ccccc1Sc1cc(-c2cnn([C@H]3CCCNC3)c2)cn2ncc(C#N)c12` [Example 487, (S)-4-((2-cyanophenyl)thio)-6-(1-(piperidin-3-yl)-1H-pyrazol-4-yl)pyrazolo[1,5-a]pyridine-3-carbonitrile] registered a concentration for half-maximal inhibition (IC50) of 0.4 nM.

The compound `CC1(C)C[C@H](n2cc(-c3cc(Sc4ncccc4F)c4c(C#N)cnn4c3)cn2)CN1` [Example 471, (S)-6-(1-(5,5-dimethylpyrrolidin-3-yl)-1H-pyrazol-4-yl)-4-((3-fluoropyridin-2-yl)thio)pyrazolo[1,5-a]pyridine-3-carbonitrile] yielded an IC50 of 1 nM.

Regarding `CN[C@H]1CC[C@H](n2ncc(-c3cc(Sc4ccccn4)c4c(C#N)cnn4c3)c2C)CC1` [Example 347, 6-(5-methyl-1-((1r,4r)-4-(methylamino)cyclohexyl)-1H-pyrazol-4-yl)-4-(pyridin-2-ylthio)pyrazolo[1,5-a]pyridine-3-carbonitrile], the IC50 came to 2.5 nM.

The compound `CC(=O)N1CCC(n2cc(-c3cc(Sc4ccc(F)cc4C#N)c4c(C#N)cnn4c3)c(C)n2)CC1` [Example 432, 6-(1-(1-acetylpiperidin-4-yl)-3-methyl-1H-pyrazol-4-yl)-4-((2-cyano-4-fluorophenyl)thio)pyrazolo [1,5-a]pyridine-3-carbonitrile] came in with a half-inhibitory concentration (IC50) of 3 nM.

Compound `COCc1c(-c2cc(Sc3ccccc3C#N)c3c(C#N)cnn3c2)cnn1C1CCN(C)CC1` [Example 424, 4-((2-cyanophenyl)thio)-6-(5-(methoxymethyl)-1-(1-methylpiperidin-4-yl)-1H-pyrazol-4-yl)pyrazolo[1,5-a]pyridine-3-carbonitrile] came in with an IC50 of 46 nM.

On to `Cc1c(-c2cc(Sc3ccc(F)cc3C#N)c3c(C#N)cnn3c2)cnn1[C@H]1CC[C@H](OC(=O)[C@H](C)N)CC1` [Example 634, (1r,4S)-4-(4-(3-cyano-4-((2-cyano-4 fluorophenyl)thio)pyrazolo [1,5-a]pyridin-6-yl)-5-methyl-1H-pyrazol-1-yl)cyclohexyl L-alaninate], for which the 50% inhibitory concentration (IC50) was determined as 1 nM.

In turn, `Cc1c(-c2cc(Sc3ccc(F)cc3C#N)c3c(C#N)cnn3c2)cnn1[C@@H]1CCC[C@@H](O)C1` [Example 497, 4-((2-cyano-4-fluorophenyl)thio)-6-(1-((1R,3R)-3-hydroxycyclohexyl)-5-methyl-1H-pyrazol-4-y)pyrazolo[1,5-a]pyridine-3-carbonitrile] yielded an IC50 of 1 nM.

For the compound `C[C@H](O)CN1CC[C@H](n2cc(-c3cc(Sc4ccccc4C#N)c4c(C#N)cnn4c3)cn2)C1` [Example 677, 4-((2-cyanophenyl)thio)-6-(1-((S)-1-((S)-2-hydroxypropyl)pyrrolidin-3-yl)-1H-pyrazol-4-y)pyrazolo[1,5-a]pyridine-3-carbonitrile], the half-maximal inhibitory concentration (IC50) worked out at 0.3 nM.
